# Reference: patent US8329756B2, “Drug for treatment of colon cancer” (Oncophor, LLC, priority 2009, dated 2012)
# Test system: DLD-1 cells
# Assay: in vitro test with cancerous DLD1 colon cells treated continuously
# Type: cell-based
# Details: continuous treatment, about 125 μg·ml of Formula (2)
# Experimental: FIG. 1 illustrates the survival percentage colon DLD-1 carcinoma cells […] after continuous treatment with Formula (2).
# FIG. 1 illustrates the results of an in vitro test with cancerous DLD1 colon cells treated continuously with Formula (2). The survival percentage for DLD-1 cells decreases from 100 percent without treatment to less than 1 percent in the presence of continuous treatment of about 125 μg·ml of Formula (2).
smiles,measurement,value
"Cc1cccc(NC(C)c2ccccc2C)c1 (stereo not shown) [Formula (2), 3-methyl-N-(1-o-tolylethyl)benxenamine]",survival percentage for DLD-1 cells,less than 1%
